Laboratory results from PubChem BioAssay AID330 (DTP/NCI, 2004).
“And” between values parts separate entries of the source, which are not always exact repeats. Identical values can stand only once. Toxic doses and inconclusive results are not listed. Rule for the calls: active = survival T/C of 150% or more; inactive = T/C below 125% in these data.

Tested on: P388 leukemia ip, CD2F1 mice, survival T/C
Assay: NCI In Vivo Anticancer Drug Screen. Data for tumor model P388 Leukemia (intraperitoneal) in CD2F1 (CDF1) mice
Settings: endpoint: median survival time, higher = longer survival
How it was run: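 Mice carrying the transplanted tumor received test compound or vehicle. Survival was recorded in each group, and the value is the treated-group measurement divided by that of the vehicle-treated control group.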

[1] = dose: 25.0 mg/kg/injection, schedule: Q01DX009 (ip), vehicle: saline with Tween-80
[2] = dose: 50.0 mg/kg/injection, schedule: Q01DX005 (ip), vehicle: saline
[3] = dose: 100.0 mg/kg/injection, schedule: Q01DX005 (ip), vehicle: saline
[4] = dose: 200.0 mg/kg/injection, schedule: Q01DX005 (ip), vehicle: saline
[5] = dose: 50.0 mg/kg/injection, schedule: Q01DX005 (ip), vehicle: saline with Tween-80
[6] = dose: 100.0 mg/kg/injection, schedule: Q01DX005 (ip), vehicle: saline with Tween-80
[7] = dose: 200.0 mg/kg/injection, schedule: Q01DX005 (ip), vehicle: saline with Tween-80
[8] = dose: 50.0 mg/kg/injection, schedule: Q01DX009 (ip), vehicle: saline with Tween-80
[9] = dose: 100.0 mg/kg/injection, schedule: Q01DX009 (ip), vehicle: saline with Tween-80
[10] = dose: 200.0 mg/kg/injection, schedule: Q01DX009 (ip), vehicle: saline with Tween-80
[11] = dose: 12.5 mg/kg/injection, schedule: Q01DX009 (ip), vehicle: Klucel (hydroxypropylcellulose) (HPC)
[12] = dose: 25.0 mg/kg/injection, schedule: Q01DX009 (ip), vehicle: Klucel (hydroxypropylcellulose) (HPC)
[13] = dose: 12.5 mg/kg/injection, schedule: Q01DX005 (ip), vehicle: Klucel (hydroxypropylcellulose) (HPC)
[14] = dose: 25.0 mg/kg/injection, schedule: Q01DX005 (ip), vehicle: Klucel (hydroxypropylcellulose) (HPC)
[15] = dose: 50.0 mg/kg/injection, schedule: Q01DX005 (ip), vehicle: Klucel (hydroxypropylcellulose) (HPC)
[16] = dose: 50.0 mg/kg/injection, schedule: Q01DX009 (ip), vehicle: saline
[17] = dose: 60.0 mg/kg/injection, schedule: Q01DX005 (ip), vehicle: saline with Tween-80
[18] = dose: 120.0 mg/kg/injection, schedule: Q01DX005 (ip), vehicle: saline with Tween-80
[19] = dose: 240.0 mg/kg/injection, schedule: Q01DX005 (ip), vehicle: saline with Tween-80

Measured: T/C

CN1CCc2c3n(c4ccccc24)C(=O)CCC31 (centres undefined)
inactive: dose: 6.25 mg/kg/injection, schedule: Q01DX009 (ip), vehicle: saline with Tween-80 120 % of control | dose: 12.5 mg/kg/injection, schedule: Q01DX009 (ip), vehicle: saline with Tween-80 120 % of control | [1] 120 % of control

C[C@H]1C(=O)NC(=O)[C@@H]1C
inactive: [2] 106 % of control | [3] 100 % of control | [4] 103 % of control

O=c1cc(-c2ccc(OCc3ccccc3)cc2)oc2ccccc12
inactive: [5] 92 % of control | [6] 87 % of control | [7] 86 % of control

CC(=O)n1cc(C2CC(=O)OC3=C2CC(=O)C(C)(C)C3)c2ccccc21 (centres undefined)
inactive: [1] 100 % of control | [8] 103 % of control | [9] 110 % of control | [10] 113 % of control | dose: 400.0 mg/kg/injection, schedule: Q01DX009 (ip), vehicle: saline with Tween-80 119 % of control

CCCCC([Se])=Nc1ccc(Br)cc1
inactive: dose: 6.25 mg/kg/injection, schedule: Q01DX009 (ip), vehicle: Klucel (hydroxypropylcellulose) (HPC) 106 % of control | [11] 104 % of control | [12] 104 % of control

CNC(C)Cc1ccccc1 (centres undefined) (tested in a mixture with another compound)
inactive: dose: 6.25 mg/kg/injection, schedule: Q01DX005 (ip), vehicle: saline with Tween-80 112 % of control | dose: 12.5 mg/kg/injection, schedule: Q01DX005 (ip), vehicle: saline with Tween-80 103 % of control | dose: 25.0 mg/kg/injection, schedule: Q01DX005 (ip), vehicle: saline with Tween-80 104 % of control | [5] 116 % of control

C1=C(c2ccc(OCc3ccccc3)c(OCc3ccccc3)c2)CC2CCCCC2C1 (centres undefined)
inactive: dose: 100.0 mg/kg/injection, schedule: Q04DX002 (ip), vehicle: saline with Tween-80 93 % of control | dose: 200.0 mg/kg/injection, schedule: Q04DX002 (ip), vehicle: saline with Tween-80 93 % of control | dose: 400.0 mg/kg/injection, schedule: Q04DX002 (ip), vehicle: saline with Tween-80 111 % of control

O=S(=O)(Nc1ccc(Cl)c(C(F)(F)F)c1)c1ccc(F)cc1
inactive: [5] 100 % of control | [6] 91 % of control | [7] 98 % of control

Cc1cccc(Nc2c(C(=O)O)cnc3cc4c(cc23)OCO4)c1
inactive: dose: 60.0 mg/kg/injection, schedule: Q01DX005 (ip), vehicle: Klucel (hydroxypropylcellulose) (HPC) 94 % of control | dose: 120.0 mg/kg/injection, schedule: Q01DX005 (ip), vehicle: Klucel (hydroxypropylcellulose) (HPC) 94 % of control

COc1c(-c2ccccc2)oc2c(ccc3occc32)c1=O
inactive: [13] 104 % of control | [14] 99 % of control | [15] 99 % of control | dose: 100.0 mg/kg/injection, schedule: Q01DX005 (ip), vehicle: Klucel (hydroxypropylcellulose) (HPC) 87 % of control | dose: 200.0 mg/kg/injection, schedule: Q01DX005 (ip), vehicle: Klucel (hydroxypropylcellulose) (HPC) 88 % of control

O=c1[nH]c(=O)n(C2CC(O)C(CO)O2)cc1N1CCOCC1 (centres undefined)
inactive: [2] 108 % of control | [3] 101 % of control | [4] 108 % of control

C[CH2][Sn]([CH2]C)([O]C(=O)c1ccc2c(c1)OC(C)(C)O2)[O]C(=O)c1ccc2c(c1)OC(C)(C)O2
inactive: dose: 6.25 mg/kg/injection, schedule: Q01DX005 (ip), vehicle: Klucel (hydroxypropylcellulose) (HPC) 117 % of control | [13] 116 % of control | [14] 120 % of control | [15] 124 % of control

CNC(=O)OCc1snc(-c2ccccc2)c1COC(=O)NC
inactive: dose: 12.5 mg/kg/injection, schedule: Q01DX005 (ip), vehicle: distilled water + Tween-80 99 % of control | dose: 25.0 mg/kg/injection, schedule: Q01DX005 (ip), vehicle: distilled water + Tween-80 101 % of control | dose: 50.0 mg/kg/injection, schedule: Q01DX005 (ip), vehicle: distilled water + Tween-80 99 % of control | dose: 100.0 mg/kg/injection, schedule: Q01DX005 (ip), vehicle: distilled water + Tween-80 96 % of control | dose: 200.0 mg/kg/injection, schedule: Q01DX005 (ip), vehicle: distilled water + Tween-80 108 % of control

CCCCCCCCCCCCCCCCCc1cccc(O)c1
inactive: [11] 114 % of control | [12] 103 % of control | dose: 50.0 mg/kg/injection, schedule: Q01DX009 (ip), vehicle: Klucel (hydroxypropylcellulose) (HPC) 114 % of control

CCCCCCCCCCCCC[N+]1([O-])CCCCC1
inactive: dose: 12.5 mg/kg/injection, schedule: Q01DX009 (ip), vehicle: saline 95 % of control | dose: 25.0 mg/kg/injection, schedule: Q01DX009 (ip), vehicle: saline 92 % of control | [16] 87 % of control and 89 % of control

CC(=O)NC(CCC(C)(C)SCc1ccccc1)C(=O)O (centres undefined)
inactive: [8] 91 % of control | [9] 94 % of control | [10] 103 % of control

C=CCN(N=Nc1ccc(Cl)cc1)c1ccc(Cl)cc1
inactive: [1] 104 % of control and 91 % of control | [8] 107 % of control and 117 % of control | [9] 108 % of control and 111 % of control | [10] 110 % of control and 117 % of control and 118 % of control

NC(N)=N/N=C\c1ccnc2ccccc12
inactive: dose: 7.5 mg/kg/injection, schedule: Q01DX005 (ip), vehicle: saline 100 % of control | dose: 15.0 mg/kg/injection, schedule: Q01DX005 (ip), vehicle: saline 105 % of control | dose: 30.0 mg/kg/injection, schedule: Q01DX005 (ip), vehicle: saline 105 % of control | dose: 60.0 mg/kg/injection, schedule: Q01DX005 (ip), vehicle: saline 105 % of control

COC(=O)/N=c1\cc(N2CC=CCC2)nc(N)n1O
inactive: [17] 94 % of control | [18] 94 % of control | [19] 91 % of control

O=C(Nc1ccccc1Cl)Oc1ccc(-c2ccccc2)cc1Br
inactive: [1] 111 % of control | [8] 121 % of control | [10] 104 % of control and 95 % of control

O=[N+]([O-])c1cc2c(cc1Cl)C1C(C3C2C2(Cl)C(Cl)=C(Cl)C3(Cl)C2(Cl)Cl)C2(Cl)C(Cl)=C(Cl)C1(Cl)C2(Cl)Cl (centres undefined)
inactive: [16] 101 % of control | dose: 100.0 mg/kg/injection, schedule: Q01DX009 (ip), vehicle: saline 109 % of control | dose: 200.0 mg/kg/injection, schedule: Q01DX009 (ip), vehicle: saline 106 % of control

CCC#CC(=O)OCC
inactive: [17] 113 % of control | [18] 102 % of control | [19] 121 % of control

CN1CC1c1cc2ccccc2c2ccccc12 (centres undefined)
inactive: dose: 100.0 mg/kg/injection, schedule: Q01DX001 (ip), vehicle: suspension in saline 107 % of control | dose: 200.0 mg/kg/injection, schedule: Q01DX001 (ip), vehicle: suspension in saline 98 % of control | dose: 400.0 mg/kg/injection, schedule: Q01DX001 (ip), vehicle: suspension in saline 101 % of control

Cc1ccc(NC(=O)Oc2ccccc2F)c([N+](=O)[O-])c1
inactive: [8] 115 % of control | [9] 115 % of control | [10] 115 % of control

COc1cccc2c1OC1(N3CCOCC3)CCCCC1C2C[N+](=O)[O-] (centres undefined)
inactive: [8] 90 % of control | [9] 93 % of control | [10] 89 % of control
